# Reference: PMC9822400, “The Lipophilic Purine Nucleoside—Tdp1 Inhibitor—Enhances DNA Damage Induced by Topotecan In Vitro and Potentiates the Antitumor Effect of Topotecan In Vivo” (Molecules, 2022)
# Entries after “also recorded” stand apart in the source; their conditions may differ.
# How the values were obtained:
# HeLa cells = assay: Effect of compounds on topotecan cytotoxicity (EZ4U test); format: cell-based, human; details: compound 10 μM in combination with Tpc
# Source text: Tdp1 inhibitors are intended to be used in therapeutic cocktails to sensitize tumors to the action of anticancer Top1 poisons. […] To assess the toxicity of the compounds, their effect on the survival of the HeLa cell line (human cervical cancer) was studied using the colorimetric test of metabolic activity of cells EZ4U, which reflects the survival of cells in the presence of the studied compounds. The EZ4U assay is based on the ability of living cells to reduce the colorless tetrazolium salt XTT [sodium 3,3′-{1-(phenylamino)-carbonyl-3,4-tetrazolium) -bis(4-methoxy-6-nitro)-benzene sulfonic acid hydrate] to an orange water-soluble formazan product. This method was used to investigate the intrinsic cytotoxicity of promising inhibitors discovered in the course of this work, as well as the toxicity of their combination with Tpc.
# As already mentioned, we expected to increase the efficacy and/or reduce the dosage of Tpc with Tdp1 inhibitors. To do this, we studied the effect of nucleoside derivatives on Tpc cytotoxicity. […] We attribute this to the probable presence of protein targets other than Tdp1 in the cell.
# Cytotoxicity of the compounds was examined on human cell lines HeLa using an EZ4U colorimetric test (Biomedica, Vienna, Austria). The HeLa cell line was obtained from the Russian Cell Culture Collection (RCCC) Institute of Cytology RAS, St. Petersburg, Russia. The cells were grown in DMEM/F12 medium (Gibco, Thermo Fisher Scientific, Waltham, MA, USA), with 1x GlutaMAX (Gibco, Thermo Fisher Scientific, Waltham, MA, USA), 50 IU/mL penicillin, 50 μg/mL streptomycin (MP Biomedicals), and in the presence of 10% fetal bovine serum (Biolot, Saint-Petersburg, Russia) in a 5% CO2 atmosphere. Since lipophilic nucleosides are soluble in DMSO, cells were grown in the presence of 1% DMSO in the control wells. After the formation of a 30–50% monolayer, the tested compounds were added to the medium, and the cell culture was monitored for 3 days. The values were normalized to their own control in each case. At least three independent experiments were carried out. The 50% cytotoxic concentration (CC50) was defined as the compound concentration that reduced the cell viability by 50% when compared to the untreated controls. The CC50 value was determined using OriginPro 8.6.0 software (OriginLab, Northampton, MA, USA). The measurements were carried out in three independent experiments.
# human recombinant PARP1 = target: T1, human recombinant PARP1 (Homo sapiens, UniProt P09874); assay: PARP1 activity by inclusion of α-[32P]-NAD+ in poly(ADP-ribose); format: biochemical; details: in the presence of 1 mM compound; read-out: Residual activity of PARP1
# T1 construct: made in house
# T1 sequence (P09874 whole entry): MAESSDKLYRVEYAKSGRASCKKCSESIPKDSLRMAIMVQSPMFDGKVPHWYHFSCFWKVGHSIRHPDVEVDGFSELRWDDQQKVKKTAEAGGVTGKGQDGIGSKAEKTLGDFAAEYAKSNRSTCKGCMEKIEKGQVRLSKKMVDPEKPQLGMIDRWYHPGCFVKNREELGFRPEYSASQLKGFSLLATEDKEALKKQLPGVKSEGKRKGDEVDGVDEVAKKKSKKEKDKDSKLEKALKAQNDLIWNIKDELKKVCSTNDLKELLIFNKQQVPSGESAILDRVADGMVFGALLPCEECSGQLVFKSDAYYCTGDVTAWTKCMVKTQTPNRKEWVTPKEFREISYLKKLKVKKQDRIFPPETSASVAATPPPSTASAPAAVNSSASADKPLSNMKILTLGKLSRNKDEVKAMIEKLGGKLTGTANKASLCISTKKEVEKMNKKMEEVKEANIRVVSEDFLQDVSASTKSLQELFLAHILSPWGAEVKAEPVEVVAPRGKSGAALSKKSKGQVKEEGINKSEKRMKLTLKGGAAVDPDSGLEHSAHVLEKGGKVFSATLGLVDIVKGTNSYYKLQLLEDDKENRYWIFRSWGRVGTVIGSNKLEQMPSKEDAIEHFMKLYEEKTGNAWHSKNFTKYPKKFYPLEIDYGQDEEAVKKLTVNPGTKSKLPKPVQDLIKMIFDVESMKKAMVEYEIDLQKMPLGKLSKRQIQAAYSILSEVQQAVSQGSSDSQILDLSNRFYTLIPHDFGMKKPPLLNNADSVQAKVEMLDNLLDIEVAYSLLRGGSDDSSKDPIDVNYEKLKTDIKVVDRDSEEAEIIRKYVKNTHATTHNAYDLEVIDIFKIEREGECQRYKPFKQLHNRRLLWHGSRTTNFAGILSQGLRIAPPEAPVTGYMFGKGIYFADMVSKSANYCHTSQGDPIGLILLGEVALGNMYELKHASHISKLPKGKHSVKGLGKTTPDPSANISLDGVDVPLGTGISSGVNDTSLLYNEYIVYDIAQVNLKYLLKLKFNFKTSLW
# Description: (§1) Since it has previously been shown that nucleoside derivatives can inhibit enzymes of the PARP family, we also checked whether the studied compounds were able to inhibit the enzymes PARP1 and PARP2. […] Thus, when using our compounds, one cannot expect side effects from PARP1/2.
# (§2) Purified human recombinant PARP1/2 [65] and [^32P] NAD^+ [27] were prepared as described earlier. The activity of PARP1/2 was evaluated by the rate of incorporation of the radioactive label into the acid-insoluble reaction product—PAR as described previously.
# human recombinant PARP2 = target: T2, human recombinant PARP2 (Homo sapiens, UniProt Q9UGN5); assay: PARP2 activity by inclusion of α-[32P]-NAD+ in poly(ADP-ribose); format: biochemical; details: in the presence of 1 mM compound; read-out: Residual activity of PARP2
# T2 construct: made in house
# T2 sequence (Q9UGN5 whole entry): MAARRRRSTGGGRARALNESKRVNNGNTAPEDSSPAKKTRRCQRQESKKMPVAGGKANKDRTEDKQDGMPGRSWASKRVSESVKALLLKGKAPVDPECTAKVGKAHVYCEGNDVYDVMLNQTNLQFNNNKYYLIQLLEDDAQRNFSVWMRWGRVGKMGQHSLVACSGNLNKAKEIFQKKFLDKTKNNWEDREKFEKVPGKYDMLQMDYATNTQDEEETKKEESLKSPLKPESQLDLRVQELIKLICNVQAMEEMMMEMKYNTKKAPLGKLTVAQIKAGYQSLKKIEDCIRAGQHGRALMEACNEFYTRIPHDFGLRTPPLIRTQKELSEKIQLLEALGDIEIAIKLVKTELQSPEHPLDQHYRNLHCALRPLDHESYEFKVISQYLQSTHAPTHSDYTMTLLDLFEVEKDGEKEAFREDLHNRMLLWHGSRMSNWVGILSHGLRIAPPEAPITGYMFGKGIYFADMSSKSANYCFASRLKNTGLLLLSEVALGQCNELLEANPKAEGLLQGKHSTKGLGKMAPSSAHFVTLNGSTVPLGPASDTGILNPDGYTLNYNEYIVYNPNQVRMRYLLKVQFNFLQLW
# Description: as §1, §2
# recombinant human Tdp1 = target: T3, recombinant human Tdp1 (Homo sapiens, UniProt Q9NUW8); assay: Steady-state kinetics of the Tdp1 reaction, type of inhibition (Vmax, KM); format: biochemical; details: dependence of Vmax and KM on inhibitor concentration
# T3 construct: made in house
# T3 sequence (Q9NUW8 whole entry): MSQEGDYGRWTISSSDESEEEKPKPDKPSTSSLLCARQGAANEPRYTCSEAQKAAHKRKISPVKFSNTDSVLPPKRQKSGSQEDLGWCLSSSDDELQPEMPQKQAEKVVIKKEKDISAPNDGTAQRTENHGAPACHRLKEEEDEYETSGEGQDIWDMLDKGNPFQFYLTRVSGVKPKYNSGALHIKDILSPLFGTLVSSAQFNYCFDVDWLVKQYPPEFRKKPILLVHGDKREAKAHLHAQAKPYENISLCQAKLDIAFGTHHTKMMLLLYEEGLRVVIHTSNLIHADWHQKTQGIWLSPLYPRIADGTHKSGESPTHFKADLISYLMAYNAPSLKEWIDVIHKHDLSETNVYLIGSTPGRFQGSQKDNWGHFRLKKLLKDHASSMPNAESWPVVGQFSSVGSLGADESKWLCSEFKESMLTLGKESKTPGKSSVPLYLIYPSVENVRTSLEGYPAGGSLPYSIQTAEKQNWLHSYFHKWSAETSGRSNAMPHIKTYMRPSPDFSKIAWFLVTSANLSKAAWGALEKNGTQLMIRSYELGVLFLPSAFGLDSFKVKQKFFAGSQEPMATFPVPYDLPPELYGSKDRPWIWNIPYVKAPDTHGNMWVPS
# Description: Then, the values of the Vmax and KM parameters were calculated from the kinetic curves obtained. The conclusion about the type of inhibition was made based on the dependence type of the calculated parameters on the concentration of the inhibitor. […] Such inhibitors, supposedly, will be more specific inhibitors of Tdp1, because they will bind to the enzyme only in the presence of the enzyme-substrate complex. […] For this reason, this compound needs additional study of its inhibition mechanism by other methods.
# To determine the kinetic parameters: apparent maximum rate of enzymatic reaction (Vmax), Michaelis constant (KM), and possible inhibition mechanism, steady-state kinetic experiments of Tdp1 enzymatic reaction were carried out at […] fixed concentrations of the substrate with various inhibitor concentrations. The standard reaction mixtures (200 μL) contained 56 nM, 96 nM, 163 nM, 277 nM, 470 nM or 800 nM oligonucleotide substrate, testable inhibitor, 1.5 nM recombinant human Tdp1 and reaction buffer components (50 mM Tris-HCl, pH 8.0, 50 mM NaCl, 7 mM β-mercaptoethanol). After the addition of the enzyme, the reaction mixtures were incubated at a constant temperature of 26 °C and measured in a POLARstar OPTIMA fluorimeter, BMG LABTECH, GmbH, to measure fluorescence every 55 s (Ex485/Em520 nm) during the linear phase (data from 0 to 8 minutes). The initial data (kinetic curves) were obtained in three independent experiments and statistically processed in the software OriginPro 8.6.0.
Compound,Enhancement of Tpc Cytotoxicity by 10 μM Compounds (HeLa cells),remaining activity at 1000 µM (human recombinant PARP1),remaining activity at 1000 µM (human recombinant PARP2),Type of inhibition of Tdp1 (recombinant human Tdp1)
"O=C(OC[C@H]1O[C@@H](n2cnc3c(Cl)nc(Cl)nc32)[C@H](OC(=O)c2ccccc2)[C@@H]1OC(=O)c1ccccc1)c1ccccc1 [compound 6d, 2,6-dichloro-9-(2,3,5-tri-O-benzoyl-β-D-ribofuranosyl)purine]",4.8 Times,96 ± 12%,86 ± 9%,uncompetitive type of inhibition; also recorded: uncompetitive mechanism
"O=C(OC[C@H]1O[C@@H](n2cnc3c(Cl)nc(F)nc32)[C@H](OC(=O)c2ccccc2)[C@@H]1OC(=O)c1ccccc1)c1ccccc1 [compound 6c, 2-Fluoro-6-chloro-9-(2,3,5-tri-O-benzoyl-β-D-ribofuranosyl)purine]",6.5 Times,82 ± 17%,80 ± 20%,uncompetitive type of inhibition; also recorded: nonlinear dependence
O[C@@H]1[C@H](O)[C@@H](COC(c2ccccc2)(c2ccccc2)c2ccccc2)O[C@H]1n1cnc2c(NC(c3ccccc3)(c3ccccc3)c3ccccc3)ncnc21 [compound 5f],1.7 Times,100 ± 10%,113 ± 18%,uncompetitive type of inhibition
